We go through two substances from patent US11951131B2, “Anti-SLAMF7 chimeric antigen receptors” (The United States of America, as represented by the …, priority 2018, dated 2024).

Entries after “also recorded” stand apart in the source; their conditions may differ.

The test system of one data set is T cells only. Briefly: IFN-gamma ELISA, T cells only (no target cells). Type of data set: cell-based, human. The procedure: (§1) One-hundred thousand SLAMF7^+ or SLAMF7-negative target cells were combined with 100,000 CAR-transduced T cells in duplicate wells of a 96 well round bottom plate in 200 µL of AIM V™ medium (Invitrogen) plus 5% human serum. The plates were incubated at 37° C. for 18-20 hours. Following the incubation, ELISAs (enzyme-linked immunosorbent assays) for IFNγ were performed by using standard methods.
The T cells columns indicate whether T cells were transduced with Luc90-CD828Z, Luc63-CD828Z, or were untransduced. The % CAR^+ in Table B-1 was determined by staining the T cells with Protein L. Except for the % CAR^+ column, all values are pg/mL of IFN-gamma. T cells that were either untransduced or transduced with one of the indicated CARs were cultured with target cells overnight and a standard IFN-gamma ELISA was performed on the culture supernatant.
(§2) All values are pg/mL of IFN-gamma. T cells that were either untransduced or transduced with one of the indicated CARs were cultured with target cells overnight, and a standard IFN-gamma ELISA was performed on the culture supernatant.
The values in the cells are pg/mL of IFN-gamma. T cells that were either untransduced or transduced with one of the indicated CARs were cultured with target cells overnight, and a standard IFN-gamma ELISA was performed on the culture supernatant. The concentrations of 0, 50, or 200 ng/mL at the top of each column indicates the concentration of soluble SLAMF7 added to all T cell plus target cell overnight cultures in that column. The soluble SLAMF7 was added at the beginning of the overnight culture.
For orientation: In an ELISA, binding on a coated surface is turned into a signal by an enzyme label.

Another data set deals with MM.1S. The experiment in a line: IFN-gamma ELISA, CAR T cells with MM.1S target cells. Type of data set: cell-based, human.
Source text: MM.1S is a SLAMF7^+ multiple myeloma cell line that was obtained from American Type Culture Collection (ATCC). A549 is a BCMA-negative lung cancer cell line (ATCC). TC71 is a BCMA-negative sarcoma cell line. CCRF-CEM, 293T, and A549 are SLAMF7-negative cell lines (ATCC). COL0207, HepG2, U251, Panc10.05, and TC71 are […] that were kind gifts from Dr. Steven Rosenberg, National Cancer Institute. SLAMF7-K562 are K562 cells (ATCC) which were transduced with the gene for full-length SLAMF7. SLAMF7-RPMI are RPMI8226 cells (ATCC) which were transduced with the gene for full-length SLAMF7. NGFR-K562 are K562 cells which were transduced with the gene for low-affinity nerve growth factor (Kochenderfer et al., J. Immunother., 32(7): 689-702 (2009)). All of the human samples mentioned were obtained from patients enrolled in IRB-approved clinical trials at the National Cancer Institute.
as §1, §2

The next data set has as its system SLAMF7^+ MM.1S cells. The experiment in a line: Cytotoxicity assay (4 hours, relative to CCRF-CEM cells). It counts as cell-based, human. The conditions noted are these: MM.1S relative to control CCRF-CEM cells (FIG. 8A). The procedure: Cytotoxicity assays were conducted as previously described (see Kochenderfer et al., J. Immunother., 32(7): 689-702 (2009)). Cytotoxicity was measured by comparing survival of SLAMF7^+ target cells relative to the survival of negative-control CCRF-CEM cells. Both of these cell types were combined in the same tubes with CAR-transduced T cells. CCRF-CEM negative control cells were labeled with the fluorescent dye 5-(and -6)-(((4-chloromethyl)benzoyl)amino) tetramethylrhodamine (CMTMR) (Invitrogen), and SLAMF7^+ target cells were labeled with CFSE. Cocultures were set up in sterile 5 mL test tubes (BD Biosciences) in duplicate at multiple T cell to target cell ratios. The target cells contained in the tubes were 50,000 SLAMF7^+ target cells along with 50,000 CCRF-CEM negative-control cells. The cultures were incubated for 4 hours at 37° C. Immediately after the incubation, 7AAD (7-amino-actinomycin D) (BD Biosciences) was added, and flow cytometry acquisition was performed. For each T cell plus target-cell culture, the percent survival of SLAMF7^+ target cells was determined by dividing the percent live SLAMF7^+ cells by the percent live CCRF-CEM negative control cells. The corrected percent survival of SLAMF7^+ target cells was calculated by dividing the percent survival of SLAMF7^+ target cells in each T cell plus target cell culture by the ratio of the percent live SLAMF7^+ target cells to percent live CCRF-CEM negative-control cells in tubes containing only SLAMF7^+ target cells and CCRF-CEM cells without effector T cells. This correction was necessary to account for variation in the starting cell numbers and for spontaneous target cell death. Cytotoxicity was calculated as follows: the percent cytotoxicity of […] target cells=100−corrected percent survival of SLAMF7^+ target cells.

Data set [1] is described as follows: Signs of CAR T-cell-mediated toxicity in mice. To be noted: mice after CAR T-cell infusion. Type of data set: in vivo. As for the experimental part:
First, MM.1S human SLAMF7^+ multiple myeloma cell line tumors were established in immunodeficient mice. In this model, the MM.1S cells formed a solid cutaneous mass. Measurable tumors were allowed to develop over 7 days, and then the mice were treated with a single intravenous infusion of MSGV1-IC9-Luc90-CD828Z-transduced human T cells. NSG mice (NOD.Cg-Prkdc^scid Il2rg^tm1Wjl/SzJ) from The Jackson Laboratory, Bar Harbor, Me., were used. Mice received intradermal injections of 4×10^6 MM.1S cells. The cells were suspended in a 1:1 mixture of MATRIGEL™ gelatinous protein mixture (BD Biosciences) and PBS (Phosphate-buffered saline) for injection. Tumors were allowed to grow for 7 days, and then each mouse received a single intravenous infusion of human T cells that were transduced with one of 3 CARs: IC9-Luc90-CD828Z (suicide gene+anti-SLAMF7 CAR), Luc90-CD828Z (anti-SLAMF7 CAR alone), or a negative-control anti-CD19 CAR Hu19-CD828Z. A 4th group was left untreated. All groups included 5 mice. After CAR T-cell infusion, the tumors were measured with calipers every 3 days. The longest length and the length perpendicular to the longest length and the tumor thickness were multiplied together to obtain the tumor volume in mm^3. When the longest length reached 15 mm, mice were sacrificed. Animal studies were approved by the National Cancer Institute Animal Care and Use Committee. […]

On to “IC9-Luc90-CD828Z: CAR plus suicide gene construct (SEQ ID NO: 31): IC9 suicide gene 5′ to the CAR, T2A, Luc90-CD828Z”, for which the “IFN-gamma, T-cells Alone” value with T cells only (Table E) was found to be 38 pg/mL. The “IFN-gamma, MM.1S” value in the data set with MM.1S (Table E) amounted to 1849 pg/mL. In addition, the “killing of SLAMF7^+ target cells” value with SLAMF7^+ MM.1S cells is given as “killed SLAMF7^+ target cells; also recorded: specifically killed the SLAMF7^+ MM.1S cells”. Also, in data set [1], the “signs of CAR T-cell-mediated toxicity” value is “did not exhibit any signs of CAR T-cell-mediated toxicity; also recorded: did not exhibit ruffled fur or decreased activity; also recorded: no toxicity”.

With “Luc90-CD828Z: anti-SLAMF7 CAR (SEQ ID NO: 27): murine Luc90 scFv, human CD8a hinge and TM, CD28 and CD3ζ domains; tested as transduced T cells”, the “IFN-gamma, T cells only” value is reported as 29 pg/mL with T cells only (Table B-2) and 33 pg/mL in the data set on T cells only (Table C). The “IFN-gamma, T cells 0 ng/ml” value in the data set with T cells only (Table D, no target cells, soluble SLAMF7 0 ng/ml) was determined as 172 pg/mL. Further, the “IFN-gamma, T cells 50 ng/ml” value in the data set on T cells only (Table D, no target cells, soluble SLAMF7 50 ng/ml) is 160 pg/mL. Further, in the data set on T cells only (Table D, no target cells, soluble SLAMF7 200 ng/ml), the “IFN-gamma, T cells 200 ng/ml” value stood at 41 pg/mL. For the same substance, in the data set with MM.1S (Table C), the “IFN-gamma, target cells MM.1S” value is recorded as 4269 pg/mL. The “killing of SLAMF7^+ target cells” value in the data set with SLAMF7^+ MM.1S cells is “killed SLAMF7^+ target cells”. The “signs of CAR T-cell-mediated toxicity” value in data set [1] is “did not exhibit ruffled fur or decreased activity”.
